Patent US20250195477A1, “DEUTERATED IDAZOXAN AND METHODS OF USE THEREOF” (Terran Biosciences Inc., priority 2022, published 2025)

Experiments:
[1] = Metabolic stability in human liver microsomes; format: in vitro ADME; settings: significant if half-life increase >=15% or CLint ratio (deuterated compound/idazoxan) >1.15 or <0.85
Description: Test compound (1 μM) was incubated with pooled liver microsomes.
Pooled liver microsomes were purchased from a reputable commercial supplier. Microsomes were stored at −80° C. prior to use.
A minus cofactor control incubation was included for each compound tested where 0.1 M phosphate buffer pH 7.4 was added instead of NADPH (minus NADPH). Two control compounds were included with each species. All incubations were performed singularly for each test compound.
The reactions were stopped by transferring incubate into acetonitrile at the appropriate time points, in a 1:3 ratio. The termination plates were centrifuged at 3,000 rpm for 20 min at 4° C. to precipitate the protein.
Following protein precipitation, the sample supernatants were combined in cassettes of up to 4 compounds, internal standard was added and samples analysed using generic LCMS/MS conditions.
From a plot of In peak area ratio (compound peak area/internal standard peak area) against time, the gradient of the line was determined. Subsequently, half-life and intrinsic clearance were calculated using the equations below:
where V=Incubation volume (μL)/Microsomal protein (mg)
Relevant control compounds were assessed, ensuring intrinsic clearance values fell within the specified limits (if available). Any failures were rejected and the assay repeated. The intrinsic clearance (CLint) of the test compound and standard error (SE CLint), t½ and n (number of time points used to calculate CLint) were returned.

[2] = Metabolic stability in human liver microsomes; format: in vitro ADME; settings: pH 7.4, pooled human liver microsomes 0.5 mg/mL, test compound 3 μM, NADPH, 0, 5, 15, 30, 45 min, LC-MS/MS; for microsomal CLint at 3 μM: read-out: CLint (μL/min/mg protein)
[3] = background statement; species and route not given; cited from earlier work

Row | SMILES | differences in in vitro clearance and half-life compared to idazoxan [1] | half-life at 3 μM [2] [h] | microsomal CLint at 3 μM [2] [µL/min/mg] | idazoxan reaching systemic circulation [3]
1 | [2H]C1([2H])N=C(C2COc3ccccc3O2)NC1([2H])[2H] (centres unmarked) [Compound 64, 2-(2,3-dihydrobenzo[b][1,4]dioxin-2-yl)-4,5-dihydro-1H-imidazole-4,4,5,5-d4] | significant differences | 7.95 | 2.91 | –
2 | [2H]c1ccc2c(c1)OC(C1=NC([2H])([2H])C([2H])([2H])N1)CO2 (centres unmarked) [Compound 50, 2-(2,3-dihydrobenzo[b][1,4]dioxin-2-yl-7-d)-4,5-dihydro-1H-imidazole-4,4,5,5-d4] | significant differences | 913 | 0.0253 | –
3 | [2H]c1ccc2c(c1)OCC(C1=NC([2H])([2H])C([2H])([2H])N1)O2 (centres unmarked) [Compound 49, 2-(2,3-dihydrobenzo[b][1,4]dioxin-2-yl-6-d)-4,5-dihydro-1H-imidazole-4,4,5,5-d4] | significant differences | 15.5 | 1.49 | –
4 | [2H]c1ccc2c(c1)OC(C1=NCCN1)CO2 (centres unmarked) [Compound 2, 2-(2,3-dihydrobenzo[b][1,4]dioxin-2-yl-7-d)-4,5-dihydro-1H-imidazole] | significant differences | 21.8 | 1.06 | –
5 | [2H]c1cc2c(cc1[2H])OC(C1=NCCN1)CO2 (centres unmarked) [Compound 3, 2-(2,3-dihydrobenzo[b][1,4]dioxin-2-yl-6,7-d2)-4,5-dihydro-1H-imidazole] | significant differences | 10.4 | 2.23 | –
6 | [2H]c1cc2c(cc1[2H])OC(C1=NC([2H])([2H])C([2H])([2H])N1)CO2 (centres unmarked) [Compound 51, 2-(2,3-dihydrobenzo[b][1,4]dioxin-2-yl-6,7-d2)-4,5-dihydro-1H-imidazole-4,4,5,5-d4] | significant differences | 13.8 | 1.68 | –
7 | [2H]c1ccc2c(c1)OCC(C1=NCCN1)O2 (centres unmarked) [Compound 1, 2-(2,3-dihydrobenzo[b][1,4]dioxin-2-yl-6-d)-4,5-dihydro-1H-imidazole] | significant differences | 8.05 | 2.87 | –
8 | COc1ccc2c(c1)[C@]13CCCC[C@@H]1[C@H](C2)N(C)CC3 [Dextromethorphan, reference compound] | – | 0.48 | 48.1 | –
9 | c1ccc2c(c1)OCC(C1=NCCN1)O2 (centres unmarked) [Idazoxan] | – | 4.28 | 5.39 | 27-28%
10 | [2H]c1c([2H])c([2H])c2c(c1[2H])OCC(C1=NC([2H])([2H])C([2H])([2H])N1)O2 (centres unmarked) [Compound 52, 2-(2,3-dihydrobenzo[b][1,4]dioxin-2-yl-5,6,7,8-d4)-4,5-dihydro-1H-imidazole-4,4,5,5-d4] | significant differences | 7.75 | 2.98 | –
11 | [2H]c1c([2H])c([2H])c2c(c1[2H])OCC(C1=NCCN1)O2 (centres unmarked) [Compound 4, 2-(2,3-dihydrobenzo[b][1,4]dioxin-2-yl-5,6,7,8-d4)-4,5-dihydro-1H-imidazole] | significant differences | 8.93 | 2.59 | –
